Results: PubChem BioAssay AID2060909 (Molecular Pharmacology Branch, DTP, NCI, 2025)

Tested on: 362531-283-R-J2-PDC complex spheroid viability
Test: Anticancer human tumor 362531-283-R-J2-PDC patient-derived colon adenocarcinoma cell line growth inhibition [RAS]
Details: for IC50: curve of first compound; for viability, T/C: stronger effect = lower value
How it was run: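 Tumour cells grown as complex spheroids with HUVEC endothelial cells and mesenchymal stem cells, treated with RAS pathway inhibitor combinations. Each agent spans half-log steps from near clinical Cmax, or 10 microM where Cmax is unknown.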

[1] = second compound 0.0316 µM, first compound 0.0316 µM
[2] = second compound 0.0316 µM, first compound 0.1 µM
[3] = second compound 0.0316 µM, first compound 0.316 µM
[4] = second compound 0.0316 µM, first compound 1 µM
[5] = second compound 0.0316 µM, first compound 3.16 µM
[6] = second compound 0.0316 µM, first compound 10 µM
[7] = second compound 0.1 µM, first compound 0.0316 µM
[8] = second compound 0.1 µM, first compound 0.1 µM
[9] = second compound 0.1 µM, first compound 0.316 µM
[10] = second compound 0.1 µM, first compound 1 µM
[11] = second compound 0.1 µM, first compound 3.16 µM
[12] = second compound 0.1 µM, first compound 10 µM
[13] = second compound 0.316 µM, first compound 0.0316 µM
[14] = second compound 0.316 µM, first compound 0.1 µM
[15] = second compound 0.316 µM, first compound 0.316 µM
[16] = second compound 0.316 µM, first compound 1 µM
[17] = second compound 0.316 µM, first compound 3.16 µM
[18] = second compound 0.316 µM, first compound 10 µM
[19] = second compound 1 µM, first compound 0.0316 µM
[20] = second compound 1 µM, first compound 0.1 µM
[21] = second compound 1 µM, first compound 0.316 µM
[22] = second compound 1 µM, first compound 1 µM
[23] = second compound 1 µM, first compound 3.16 µM
[24] = second compound 1 µM, first compound 10 µM
[25] = second compound 0.000949 µM, first compound 0.0316 µM
[26] = second compound 0.000949 µM, first compound 0.1 µM
[27] = second compound 0.000949 µM, first compound 0.316 µM
[28] = second compound 0.000949 µM, first compound 1 µM
[29] = second compound 0.000949 µM, first compound 3.16 µM
[30] = second compound 0.000949 µM, first compound 10 µM
[31] = second compound 0.003 µM, first compound 0.0316 µM
[32] = second compound 0.003 µM, first compound 0.1 µM
[33] = second compound 0.003 µM, first compound 0.316 µM
[34] = second compound 0.003 µM, first compound 1 µM
[35] = second compound 0.003 µM, first compound 3.16 µM
[36] = second compound 0.003 µM, first compound 10 µM
[37] = second compound 0.00949 µM, first compound 0.0316 µM
[38] = second compound 0.00949 µM, first compound 0.1 µM
[39] = second compound 0.00949 µM, first compound 0.316 µM
[40] = second compound 0.00949 µM, first compound 1 µM
[41] = second compound 0.00949 µM, first compound 3.16 µM
[42] = second compound 0.00949 µM, first compound 10 µM
[43] = second compound 0.03 µM, first compound 0.0316 µM
[44] = second compound 0.03 µM, first compound 0.1 µM
[45] = second compound 0.03 µM, first compound 0.316 µM
[46] = second compound 0.03 µM, first compound 1 µM
[47] = second compound 0.03 µM, first compound 3.16 µM
[48] = second compound 0.03 µM, first compound 10 µM
[49] = second compound 0.0949 µM, first compound 0.0316 µM
[50] = second compound 0.0949 µM, first compound 0.1 µM
[51] = second compound 0.0949 µM, first compound 0.316 µM
[52] = second compound 0.0949 µM, first compound 1 µM
[53] = second compound 0.0949 µM, first compound 3.16 µM
[54] = second compound 0.0949 µM, first compound 10 µM
[55] = second compound 0.3 µM, first compound 0.0316 µM
[56] = second compound 0.3 µM, first compound 0.1 µM
[57] = second compound 0.3 µM, first compound 0.316 µM
[58] = second compound 0.3 µM, first compound 1 µM
[59] = second compound 0.3 µM, first compound 3.16 µM
[60] = second compound 0.3 µM, first compound 10 µM
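Note: spheroids exposed to the agents for 7 days before readout.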
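Throughout, for viability, T/C: luminescence viability as percent of DMSO vehicle control wells.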

## CC1(O)CCCC1n1c(=O)c(C(F)F)cc2cnc(NC3CCN(S(C)(=O)=O)CC3)nc21 (stereo not drawn) + C=CC(=O)N1CCN(c2nc(OCC3CCCN3C)nc3c(F)c(-c4nc(N)cc(C)c4C(F)(F)F)c(Cl)cc23)C(C)C1
Second compound 0.00316 µM
  IC50: > 10 µM
Second compound 0.01 µM
  IC50: > 10 µM
Second compound 0.0316 µM
  IC50: > 10 µM
Second compound 0.1 µM
  IC50: > 10 µM
Second compound 0.316 µM
  IC50: > 10 µM
Second compound 1 µM
  IC50: > 10 µM
Second compound 0.00316 µM, first compound 0.0316 µM
  viability, T/C: 97.6%
Second compound 0.00316 µM, first compound 0.1 µM
  viability, T/C: 98%
Second compound 0.00316 µM, first compound 0.316 µM
  viability, T/C: 77.6%
Second compound 0.00316 µM, first compound 1 µM
  viability, T/C: 68.3%
Second compound 0.00316 µM, first compound 3.16 µM
  viability, T/C: 64.8%
Second compound 0.00316 µM, first compound 10 µM
  viability, T/C: 101%
Second compound 0.01 µM, first compound 0.0316 µM
  viability, T/C: 101%
Second compound 0.01 µM, first compound 0.1 µM
  viability, T/C: 97.1%
Second compound 0.01 µM, first compound 0.316 µM
  viability, T/C: 83.1%
Second compound 0.01 µM, first compound 1 µM
  viability, T/C: 75.5%
Second compound 0.01 µM, first compound 3.16 µM
  viability, T/C: 68.6%
Second compound 0.01 µM, first compound 10 µM
  viability, T/C: 65.7%
[1]
  viability, T/C: 102%
[2]
  viability, T/C: 93.2%
[3]
  viability, T/C: 82.8%
[4]
  viability, T/C: 76.1%
[5]
  viability, T/C: 60%
[6]
  viability, T/C: 95.2%
[7]
  viability, T/C: 91.5%
[8]
  viability, T/C: 95%
[9]
  viability, T/C: 93.5%
[10]
  viability, T/C: 75.2%
[11]
  viability, T/C: 54.1%
[12]
  viability, T/C: 89.7%
[13]
  viability, T/C: 97.2%
[14]
  viability, T/C: 92.5%
[15]
  viability, T/C: 89.2%
[16]
  viability, T/C: 70.2%
[17]
  viability, T/C: 64.4%
[18]
  viability, T/C: 69.1%
[19]
  viability, T/C: 98.6%
[20]
  viability, T/C: 104%
[21]
  viability, T/C: 89.9%
[22]
  viability, T/C: 77.4%
[23]
  viability, T/C: 70.8%
[24]
  viability, T/C: 53%

## CC(Nc1ccc2c(c1)OCCn1cc(N3C(=O)OCC3C(F)F)nc1-2)C(N)=O (stereo not drawn) + CCn1c(-c2cccnc2C(C)OC)c2c3cc(ccc31)N1CCOC(CC(NC(=O)C(C(C)C)N(C)C(=O)C3(F)CCN(C(=O)C#CC(C)(C)N(C)C)CC3)C(=O)N3CCCC(N3)C(=O)OCC(C)(C)C2)C1
Second compound 0.000949 µM
  IC50: 1.53 µM
Second compound 0.003 µM
  IC50: 1.29 µM
Second compound 0.00949 µM
  IC50: 1.68 µM
Second compound 0.03 µM
  IC50: 2.09 µM
Second compound 0.0949 µM
  IC50: 1.65 µM
Second compound 0.3 µM
  IC50: 1.51 µM
[25]
  viability, T/C: 103%
[26]
  viability, T/C: 107%
[27]
  viability, T/C: 92.1%
[28]
  viability, T/C: 59.6%
[29]
  viability, T/C: 34.2%
[30]
  viability, T/C: 29%
[31]
  viability, T/C: 106%
[32]
  viability, T/C: 95.5%
[33]
  viability, T/C: 92.9%
[34]
  viability, T/C: 52.4%
[35]
  viability, T/C: 36.8%
[36]
  viability, T/C: 24.4%
[37]
  viability, T/C: 95.4%
[38]
  viability, T/C: 106%
[39]
  viability, T/C: 87.8%
[40]
  viability, T/C: 62.4%
[41]
  viability, T/C: 35.7%
[42]
  viability, T/C: 28.4%
[43]
  viability, T/C: 98.4%
[44]
  viability, T/C: 96.5%
[45]
  viability, T/C: 87.1%
[46]
  viability, T/C: 65.3%
[47]
  viability, T/C: 41.7%
[48]
  viability, T/C: 24.9%
[49]
  viability, T/C: 93.9%
[50]
  viability, T/C: 91.4%
[51]
  viability, T/C: 88.5%
[52]
  viability, T/C: 60.5%
[53]
  viability, T/C: 36.1%
[54]
  viability, T/C: 24.5%
[55]
  viability, T/C: 93.4%
[56]
  viability, T/C: 85.5%
[57]
  viability, T/C: 83%
[58]
  viability, T/C: 56.9%
[59]
  viability, T/C: 36.6%
[60]
  viability, T/C: 28%

## CC(C)NCC(C(=O)N1CCN(c2ncnc3c2C(C)CC3O)CC1)c1ccc(Cl)cc1 (stereo not drawn) + CCn1c(-c2cccnc2C(C)OC)c2c3cc(ccc31)N1CCOC(CC(NC(=O)C(C(C)C)N(C)C(=O)C3(F)CCN(C(=O)C#CC(C)(C)N(C)C)CC3)C(=O)N3CCCC(N3)C(=O)OCC(C)(C)C2)C1
Second compound 0.000949 µM
  IC50: > 10 µM
Second compound 0.003 µM
  IC50: > 10 µM
Second compound 0.00949 µM
  IC50: > 10 µM
Second compound 0.03 µM
  IC50: > 10 µM
Second compound 0.0949 µM
  IC50: > 10 µM
Second compound 0.3 µM
  IC50: > 10 µM
[25]
  viability, T/C: 97.8%
[26]
  viability, T/C: 106%
[27]
  viability, T/C: 91.4%
[28]
  viability, T/C: 94.4%
[29]
  viability, T/C: 101%
[30]
  viability, T/C: 93.5%
[31]
  viability, T/C: 103%
[32]
  viability, T/C: 105%
[33]
  viability, T/C: 94.4%
[34]
  viability, T/C: 92.9%
[35]
  viability, T/C: 94.1%
[36]
  viability, T/C: 101%
[37]
  viability, T/C: 92.9%
[38]
  viability, T/C: 100%
[39]
  viability, T/C: 95%
[40]
  viability, T/C: 98.8%
[41]
  viability, T/C: 98.3%
[42]
  viability, T/C: 99%
[43]
  viability, T/C: 104%
[44]
  viability, T/C: 87.4%
[45]
  viability, T/C: 96.7%
[46]
  viability, T/C: 86.2%
[47]
  viability, T/C: 97.3%
[48]
  viability, T/C: 100%
[49]
  viability, T/C: 92.2%
[50]
  viability, T/C: 91.1%
[51]
  viability, T/C: 103%
[52]
  viability, T/C: 88.1%
[53]
  viability, T/C: 94.9%
[54]
  viability, T/C: 94.3%
[55]
  viability, T/C: 90.8%
[56]
  viability, T/C: 94.1%
[57]
  viability, T/C: 97.8%
[58]
  viability, T/C: 91.9%
[59]
  viability, T/C: 98.9%
[60]
  viability, T/C: 92%

## CCC(CC)c1cc(NC2CCC(N)C2)n2nccc2n1 (stereo not drawn) + C#Cc1c(F)ccc2cc(O)cc(-c3ncc4c(N5CC6CCC(C5)N6)nc(OCC56CCCN5CC(F)C6)nc4c3F)c12
Second compound 0.0316 µM
  IC50: 4.96 µM
Second compound 0.1 µM
  IC50: 4.36 µM
Second compound 0.316 µM
  IC50: 5.07 µM
Second compound 1 µM
  IC50: 1.82 µM
Second compound 3.16 µM
  IC50: 1.5 µM
Second compound 10 µM
  IC50: 0.338 µM
[1]
  viability, T/C: 96.9%
[2]
  viability, T/C: 107%
[3]
  viability, T/C: 99.9%
[4]
  viability, T/C: 105%
[5]
  viability, T/C: 79%
[6]
  viability, T/C: 4.8%
[7]
  viability, T/C: 105%
[8]
  viability, T/C: 98.8%
[9]
  viability, T/C: 101%
[10]
  viability, T/C: 88%
[11]
  viability, T/C: 70%
[12]
  viability, T/C: 3.26%
[13]
  viability, T/C: 117%
[14]
  viability, T/C: 96.9%
[15]
  viability, T/C: 89.5%
[16]
  viability, T/C: 83.3%
[17]
  viability, T/C: 87.2%
[18]
  viability, T/C: 2.95%
[19]
  viability, T/C: 80.4%
[20]
  viability, T/C: 88.3%
[21]
  viability, T/C: 82.2%
[22]
  viability, T/C: 82.9%
[23]
  viability, T/C: 19.8%
[24]
  viability, T/C: 4.12%
Second compound 3.16 µM, first compound 0.0316 µM
  viability, T/C: 72.4%
Second compound 3.16 µM, first compound 0.1 µM
  viability, T/C: 76.3%
Second compound 3.16 µM, first compound 0.316 µM
  viability, T/C: 68.1%
Second compound 3.16 µM, first compound 1 µM
  viability, T/C: 79.2%
Second compound 3.16 µM, first compound 3.16 µM
  viability, T/C: 5.75%
Second compound 3.16 µM, first compound 10 µM
  viability, T/C: 3.27%
Second compound 10 µM, first compound 0.0316 µM
  viability, T/C: 44.2%
Second compound 10 µM, first compound 0.1 µM
  viability, T/C: 49.4%
Second compound 10 µM, first compound 0.316 µM
  viability, T/C: 58.1%
Second compound 10 µM, first compound 1 µM
  viability, T/C: 36.2%
Second compound 10 µM, first compound 3.16 µM
  viability, T/C: 7.13%
Second compound 10 µM, first compound 10 µM
  viability, T/C: 4.45%
